In patent US11066409B2, “Bicyclic nitrogen-containing heterocyclic derivatives and pharmaceutical composition comprising the same” (Shionogi & Co., Ltd., priority 2016, dated 2021):

Key:
human P2X7 receptor = human P2X7 receptor (Homo sapiens (Human), UniProt Q99572, R270H); assay: Evaluation of a human P2X7 receptor inhibitory activity (Yo-Pro uptake, BzATP stimulation, FLIPR TETRA); assay type: cell-based; conditions: 1321N1 cells stably expressing human P2X7 receptor, Yo-Pro fluorescence
Method in brief: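 1321N1 cells stably expressing human P2X7 (T606C/G952A SNP variant) in HBSS/HEPES pH 7.4–7.5 were loaded with Yo-Pro and stimulated with BzATP on FLIPR TETRA. Compound was added 8 min later and fluorescence followed for 20 min. Inhibition scaled between no-compound (0%) and reference compound (100%); IC50 by logistic fit, reported in bins A–D.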

[1] = tested on: partial sciatic nerve ligation model in rats; assay: Analgesic effect in a Seltzer model (partial sciatic nerve ligation), mechanical allodynia by von Frey filaments; assay type: in vivo; conditions: 1 h, rat, oral, reversal of mechanical allodynia, approximately 1 to 5 hours after administration
Source text: Preparation of Partial Sciatic Nerve Ligation Model in Rats
Rats were anaesthetized using isoflurane/O2 inhalation anaesthesia. After induction of anesthesia, the left thigh was shaved. An incision was made in the skin just below the hip bone. The muscle was bluntly dissected to expose the sciatic nerve. About one half (½) of the sciatic nerve thickness was tightly ligated with a nylon thread and the wound was closed. The right thigh was used as a sham-operated control. The right thigh underwent an identical procedure with the left hind limb, however, the sciatic nerve was not manipulated or ligated.
Two weeks after nerve ligation, the effect on mechanical allodynia was assessed using a series of von Frey filaments. For habituation, the rats were placed into a plastic cage on a wire mesh bottom. Von Frey filaments (0.4 to 26 g) were applied to the plantar surface of the rat hind paws from the wire mesh side, and the value of the filament pressure at which the paw was withdrawn was used as a pain threshold. The measurement of mechanical sensitivity of the right and left hind paws was performed to obtain predose mechanical sensitivity. The rats showing the threshold change from 0.6 to 2 g (in nerve ligated side) and 8 to 15 g (in sham operated side) were used in the experiments. On the day before the experiment, the rats were evaluated with a series of von Frey filaments to familiarize them with the test procedure. The adopted animal was administrated with the compounds of the present invention. The compounds of the present invention were homogenized with mortar and pestle and suspended or diluted in 0.5% Methyl Cellulose to prepare 0.03-100 mg/2 mL/kg suspension and orally administered to rat using a syringe attached with a sonde. Post-dose mechanical sensitivities of the right and left hind paws were measured at approximately 1 to 5 hours after drug administration. Percent reversal of mechanical allodynia for each rat was calculated using the following formula. The analgesic effects of the compounds were compared.

human PXR = human PXR (Homo sapiens (Human), UniProt O75469); assay: Evaluation of activation of human pregnane X receptor (PXR), DPX2 cells; assay type: cell-based; conditions: 48 hours, emission intensity divided by fluorescence intensity; for PXR 10 μM: compound 10 μM; for PXR 50 μM: compound 50 μM
Procedure: A Human PXR activation (Puracyp, Inc.) kit was used for evaluation.
DPX2 cells expressing human PXR were seeded in a 96-well plate at a concentration of 40000 cells/well and cultured at 37° C. under 5% carbon dioxide for 24 hours (medium: culture medium for DPX2 cells containing 10% fetal bovine serum, antibiotics, sodium pyruvate, D-glucose, and phenol red). After culture for 24 hours, a DMSO solution of the compound of the present invention was diluted with a medium (dosing medium for DPX2 cells containing 10% fetal bovine serum, D-glucose, antibiotics, sodium pyruvate, and L-glutamine) so that the final concentration was 10 and 50 μM, and a rifampicin DMSO solution as a positive control drug was 0.2, 1, 2, and 20 μM. The medium was removed from the 96-well plate after culture for 24 hours. 100 μL of the solution of the compound of the present invention and 100 μL of the rifampicin solution prepared were added to each well, and cultured for 48 hours. The medium was removed from the 96-well plate after culture for 48 hours. 100 μL of each reaction mixture obtained by adding 5.25 μL of CellTiter-Fluor to 10.5 mL of TubeE was filled therein. The plate was set in a plate reader (PerkinElmer, Inc.) after culture for 1 hour to measure the fluorescence intensity at an interval of 0.1 seconds per well. The plate was taken out. 100 μL of a solution obtained by adding ONE-Glo Assay Substrate to ONE-Glo Assaybuffer was added to each well. After 2 minutes from the addition of the solution, the plate was set in the plate reader to measure the […] at an interval of 2 seconds per well. The PXR activity of the product of the present invention was a value obtained by dividing the emission intensity by the fluorescence intensity.

human P2X7 receptor, sequence (Q99572 whole entry R270H): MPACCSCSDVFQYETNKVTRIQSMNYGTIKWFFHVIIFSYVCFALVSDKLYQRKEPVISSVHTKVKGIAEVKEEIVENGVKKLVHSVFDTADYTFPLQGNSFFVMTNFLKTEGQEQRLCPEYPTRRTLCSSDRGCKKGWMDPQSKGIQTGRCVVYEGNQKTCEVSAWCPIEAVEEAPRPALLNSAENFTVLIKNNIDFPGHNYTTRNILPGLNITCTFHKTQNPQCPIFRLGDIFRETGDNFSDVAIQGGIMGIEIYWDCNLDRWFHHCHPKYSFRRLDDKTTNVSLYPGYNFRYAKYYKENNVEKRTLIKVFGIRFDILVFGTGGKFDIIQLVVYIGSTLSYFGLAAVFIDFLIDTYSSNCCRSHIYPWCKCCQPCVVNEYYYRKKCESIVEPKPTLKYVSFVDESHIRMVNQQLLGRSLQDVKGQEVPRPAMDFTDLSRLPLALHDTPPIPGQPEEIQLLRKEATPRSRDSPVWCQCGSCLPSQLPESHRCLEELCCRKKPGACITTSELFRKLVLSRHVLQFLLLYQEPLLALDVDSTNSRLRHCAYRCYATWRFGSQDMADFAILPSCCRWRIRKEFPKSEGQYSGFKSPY
human PXR, sequence (O75469 whole entry): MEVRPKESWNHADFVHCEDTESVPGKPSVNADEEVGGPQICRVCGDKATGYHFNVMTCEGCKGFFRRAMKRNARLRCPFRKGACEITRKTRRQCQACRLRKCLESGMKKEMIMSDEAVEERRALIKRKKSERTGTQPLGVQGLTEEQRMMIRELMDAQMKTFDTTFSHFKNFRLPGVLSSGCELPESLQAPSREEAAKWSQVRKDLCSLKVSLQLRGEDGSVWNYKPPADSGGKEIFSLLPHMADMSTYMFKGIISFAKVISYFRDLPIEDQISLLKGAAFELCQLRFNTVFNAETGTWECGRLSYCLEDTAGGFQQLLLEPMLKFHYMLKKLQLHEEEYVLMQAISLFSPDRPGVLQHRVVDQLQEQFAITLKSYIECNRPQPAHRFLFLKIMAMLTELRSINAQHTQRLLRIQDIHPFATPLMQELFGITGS

SMILES | IC50 (human P2X7 receptor; class symbols) | further results
Cc1cc2c(cc1Nc1nc(=O)c(F)c3n1C(c1cc(F)cc(F)c1)CC3)COC2 (stereo not drawn) [Compound I-0102] | – | IC50 (human P2X7 receptor): 11 nM; inhibition in vivo at 3 mg/kg [1]: 55%
COc1ccc(NC2=NC(=O)N(C)C3=NCC(c4cc(F)c(F)c(F)c4)N23)c(C)c1 (stereo not drawn) [Compound I-0135] | 10 to 100 nM | inhibition in vivo at 3 mg/kg [1]: 52%; PXR 10 μM (human PXR): 3; PXR 50 μM (human PXR): 9
COc1ccc(C)c(NC2=NC(=O)N(C)C3=NCC(c4cc(F)c(F)c(F)c4)N23)c1 (stereo not drawn) [Compound I-0142] | 10 to 100 nM | PXR 10 μM (human PXR): 5.8; PXR 50 μM (human PXR): 13
COc1ccc(NC2=NC(=O)N(C)C3=NCC(c4cc(F)c(F)c(F)c4)N23)c(C)c1F (stereo not drawn) [Compound I-0147] | 10 to 100 nM | IC50 (human P2X7 receptor): 24 nM; inhibition in vivo at 1 mg/kg [1]: 33%
COc1cc(NC2=NC(=O)N(C)C3=NCC(c4cc(F)c(F)c(F)c4)N23)c(C)cc1F (stereo not drawn) [Compound I-0149] | – | IC50 (human P2X7 receptor): 21 nM; inhibition in vivo at 1 mg/kg [1]: 41%
COc1nc(C)c(NC2=NC(=O)N(C)C3=NCC(c4cc(F)c(F)c(F)c4)N23)cc1F (stereo not drawn) [Compound I-0162] | – | IC50 (human P2X7 receptor): 19 nM; PXR 10 μM (human PXR): 6.7; PXR 50 μM (human PXR): 20
Cc1cc(F)c(CO)cc1NC1=NC(=O)N(C)C2=NCC(c3cc(F)c(F)c(F)c3)N12 (stereo not drawn) [Compound I-0168] | – | inhibition in vivo at 1 mg/kg [1]: 53%; PXR 10 μM (human PXR): 0.9; PXR 50 μM (human PXR): 1.7
Cc1ccc(OCCO)cc1NC1=NC(=O)N(C)C2=NCC(c3cc(F)c(F)c(F)c3)N12 (stereo not drawn) [Compound I-0171] | – | inhibition in vivo at 1 mg/kg [1]: 52%; PXR 10 μM (human PXR): 1.2; PXR 50 μM (human PXR): 2.5
COc1ccc(Nc2nc(=O)n(C)c3ncn(Cc4ccccc4)c23)c(C)c1 [Compound I-0174] | 100 to 500 nM | –
Cc1ncc(CO)cc1NC1=NC(=O)N(C)C2=NCC(c3cc(F)c(F)c(F)c3)N12 (stereo not drawn) [Compound I-0175] | 10 to 100 nM | –
CCc1ccc(CO)cc1NC1=NC(=O)N(C)C2=NCC(c3cc(F)c(F)c(F)c3)N12 (stereo not drawn) [Compound I-0176] | – | IC50 (human P2X7 receptor): 20 nM; PXR 10 μM (human PXR): 1.1; PXR 50 μM (human PXR): 2
Cc1ccc(C)c(NC2=NC(=O)N(C)C3=NCC(Cc4ccccc4)N23)c1 (stereo not drawn) [Compound I-0177] | 100 to 500 nM | –
Cc1ccc(CO)cc1NC1=NC(=O)NC2=NCC(c3cc(F)c(F)c(F)c3)N21 (stereo not drawn) [Compound I-0178] | 10 to 100 nM | –
Cc1ccc(CO)cc1NC1=NC(=O)N(C)C2=NCC(Cc3ccccc3)N12 (stereo not drawn) [Compound I-0179] | 100 to 500 nM | –
CCc1ccc(CO)cc1NC1=NC(=O)NC2=NCC(c3cc(F)c(F)c(F)c3)N21 (stereo not drawn) [Compound I-0180] | 10 to 100 nM | –
Cc1ccc(CCCO)cc1NC1=NC(=O)N(C)C2=NCC(c3cc(F)c(F)c(F)c3)N12 (stereo not drawn) [Compound I-0181] | 10 to 100 nM | –
COc1nc(C)c(NC2=NC(=O)N(C)C3=NCC(c4cc(F)c(F)c(F)c4)N23)cc1CO (stereo not drawn) [Compound I-0182] | 10 to 100 nM | –
CCc1ccc(CO)cc1NC1=NC(=O)N(C)C2=NCC(Cc3ccccc3)N12 (stereo not drawn) [Compound I-0183] | 100 to 500 nM | –
Cc1ccc(CC(F)(F)CO)cc1NC1=NC(=O)N(C)C2=NCC(c3cc(F)c(F)c(F)c3)N12 (stereo not drawn) [Compound I-0184] | 10 to 100 nM | –
Cc1ccc(O[C@H]2C[C@@H](CO)C2)cc1NC1=NC(=O)N(C)C2=NCC(c3cc(F)c(F)c(F)c3)N12 (stereo partly drawn) [Compound I-0185] | 10 to 100 nM | –
Cc1ccc(O[C@H]2C[C@H](CO)C2)cc1NC1=NC(=O)N(C)C2=NCC(c3cc(F)c(F)c(F)c3)N12 (stereo partly drawn) [Compound I-0186] | 10 to 100 nM | –
Cc1cc2cnn(CCO)c2cc1NC1=NC(=O)N(C)C2=NCC(c3cc(F)c(F)c(F)c3)N12 (stereo not drawn) [Compound I-0187] | 10 to 100 nM | –
CN1C(=O)N=C(NCc2ccccc2)N2C1=NCC2c1cc(F)c(F)c(F)c1 (stereo not drawn) [Compound I-0188] | – | IC50 (human P2X7 receptor): 7.6 nM; PXR 10 μM (human PXR): 1.3; PXR 50 μM (human PXR): 3.5
Cc1ccc(C#N)cc1NC1=NC(=O)N(CCO)C2=NCC(c3cc(F)c(F)c(F)c3)N12 (stereo not drawn) [Compound I-0189] | 10 to 100 nM | –

SMILES | IC50 (human P2X7 receptor; class symbols) | further results
Cc1ccc(OC[C@H]2C[C@H](O)C2)cc1NC1=NC(=O)N(C)C2=NCC(c3cc(F)c(F)c(F)c3)N12 (stereo partly drawn) [Compound I-0190] | 10 to 100 nM | –
Cc1ccc(C=O)cc1NC1=NC(=O)N(C)C2=NCC(c3cc(F)c(F)c(F)c3)N12 (stereo not drawn) [Compound I-0191] | 10 to 100 nM | –
Cc1ccc(Oc2ccccn2)cc1NC1=NC(=O)N(C)C2=NCC(c3cc(F)c(F)c(F)c3)N12 (stereo not drawn) [Compound I-0193] | 10 to 100 nM | –
Cc1ccc(CCO)cc1NC1=NC(=O)N(C)C2=NCC(c3cc(F)c(F)c(F)c3)N12 (stereo not drawn) [Compound I-0194] | 10 to 100 nM | –
Cc1ccc(CO)cc1NC1=NC(=O)N(C)C2=NCC(c3cc(F)nc(F)c3)N12 (stereo not drawn) [Compound I-0195] | 10 to 100 nM | –
CN1C(=O)N=C(NCc2ccccc2F)N2C1=NCC2c1cc(F)c(F)c(F)c1 (stereo not drawn) [Compound I-0196] | 10 to 100 nM | –
CN1C(=O)N=C(NCc2cccc(F)c2)N2C1=NCC2c1cc(F)c(F)c(F)c1 (stereo not drawn) [Compound I-0197] | 10 to 100 nM | –
CN1C(=O)N=C(NCc2ccc(F)cc2)N2C1=NCC2c1cc(F)c(F)c(F)c1 (stereo not drawn) [Compound I-0198] | 10 to 100 nM | –
Cc1ccc(OCCS(C)(=O)=O)cc1NC1=NC(=O)N(C)C2=NCC(c3cc(F)c(F)c(F)c3)N12 (stereo not drawn) [Compound I-0199] | 10 to 100 nM | –
Cc1ccc(OCC#N)cc1NC1=NC(=O)N(C)C2=NCC(c3cc(F)c(F)c(F)c3)N12 (stereo not drawn) [Compound I-0200] | 10 to 100 nM | –
COCCc1ccc(C)c(NC2=NC(=O)N(C)C3=NCC(c4cc(F)c(F)c(F)c4)N23)c1 (stereo not drawn) [Compound I-0202] | 10 to 100 nM | –
COCC(F)(F)Oc1ccc(C)c(NC2=NC(=O)N(C)C3=NCC(c4cc(F)c(F)c(F)c4)N23)c1 (stereo not drawn) [Compound I-0203] | 10 to 100 nM | –
Cc1ccc(OC(F)(F)CO)cc1NC1=NC(=O)N(C)C2=NCC(c3cc(F)c(F)c(F)c3)N12 (stereo not drawn) [Compound I-0204] | 10 to 100 nM | –
COCC(F)(F)c1ccc(C)c(NC2=NC(=O)N(C)C3=NCC(c4cc(F)c(F)c(F)c4)N23)c1 (stereo not drawn) [Compound I-0205] | 10 to 100 nM | –
Cc1ccc(C(F)(F)CO)cc1NC1=NC(=O)N(C)C2=NCC(c3cc(F)c(F)c(F)c3)N12 (stereo not drawn) [Compound I-0206] | 10 to 100 nM | –
COc1ccc([C@@H](C)NC2=NC(=O)N(C)C3=NCC(c4cc(F)c(F)c(F)c4)N23)cc1 (stereo partly drawn) [Compound I-0207] | 100 to 500 nM | –
Cc1cc(C#N)ccc1NC1=NC(=O)N(C)C2=NCC(c3cc(F)c(F)c(F)c3)N12 (stereo not drawn) [Compound I-0208] | 10 to 100 nM | –
COc1cc(NC2=NC(=O)N(C)C3=NCC(c4cc(F)c(F)c(F)c4)N23)c(C)cc1C#N (stereo not drawn) [Compound I-0209] | 10 to 100 nM | –
CN1C(=O)N=C(Nc2cc(C#N)ccc2F)N2C1=NCC2c1cc(F)c(F)c(F)c1 (stereo not drawn) [Compound I-0210] | 10 to 100 nM | –
Cc1cc(F)c(C#N)cc1NC1=NC(=O)N(C)C2=NCC(c3cc(F)c(F)c(F)c3)N12 (stereo not drawn) [Compound I-0211] | 10 to 100 nM | –
Cc1c(F)cc(C#N)cc1NC1=NC(=O)N(C)C2=NCC(c3cc(F)c(F)c(F)c3)N12 (stereo not drawn) [Compound I-0212] | 10 to 100 nM | –
Cc1ccc(C2=NCCO2)cc1NC1=NC(=O)N(C)C2=NCC(c3cc(F)c(F)c(F)c3)N12 (stereo not drawn) [Compound I-0213] | 10 to 100 nM | –
Cc1cc(F)c(C2=NCCO2)cc1NC1=NC(=O)N(C)C2=NCC(c3cc(F)c(F)c(F)c3)N12 (stereo not drawn) [Compound I-0214] | 10 to 100 nM | –
